Measured values as given in ChEMBL document CHEMBL3507680, “University of Dundee, Gates Library screen for HepG2 cell viability”.

Assay: Human HepG2 cell viability assay in 384 well format
Assay type: toxicity, cell-based
Parameters: dose 125 nL, time 70.5 hour; cytotoxicity at 70.5 h: concentration not given beside the values
Conditions: HepG2 cells, read-out: Inhibition

| Structure (SMILES) | cytotoxicity at 70.5 h [%] |
| --- | --- |
| CCOc1cccc(C(=O)Nc2ccncc2)c1 | -8.85 |
| CCc1nc2n(n1)CC(NCc1nc(C)c(C)o1)CC2 (stereo not drawn) | -5.85 |
| Cn1cc(C2CCCN2CC(=O)N(CCC#N)Cc2ccco2)cn1 (stereo not drawn) | 2 |
| CCc1nnc(C2Cc3ccccc3CN2Cc2nc(C3CC3)no2)o1 (stereo not drawn) | -5.61 |
| c1cncc(CN2CCC(c3n[nH]c(C4CC4)n3)CC2)c1 | 33.7 |
| O=C(c1ccoc1)N1CCC(NCc2ccccc2-n2ccnc2)CC1 | 9.01 |
| CC(C)CN1CC(C(=O)NCCc2ccc(OC(F)F)cc2)CC1=O (stereo not drawn) | 9.73 |
| O=C(CCNc1ncccn1)NCCc1ccc(Cl)s1 | -3.42 |
| O=C(CCNc1ncccn1)NCc1csc(Br)c1 | 11.5 |
| CCS(=O)(=O)N1CCC(Nc2c(F)cc(C#N)cc2F)CC1 | -9.63 |
| CCCS(=O)(=O)N1CCC(Nc2c(F)cc(C#N)cc2F)CC1 | -2.66 |
| Cc1nc(S(=O)(=O)NCCC(=O)NCc2ccc(C#N)cc2)cn1C | -0.237 |
| CCN(CC)c1ccc(CNC(=O)c2cnc(C)cn2)cn1 | -4.04 |
| CNC(=O)C1CCN(C(=O)NCc2ccc(C)n2C)CC1 | -4.71 |
| Nc1cc2c(nn1)CCN(C(=O)Cc1ccc3c(c1)CCCC3)C2 | -2.05 |
| CN(C)c1cc2c(nn1)CCN(C(=O)Cc1ccc3c(c1)CCO3)C2 | -5.69 |
| NC(=O)CC1CCN(C(=O)NCC2(c3ccccc3F)CC2)CC1 | 0.188 |
| Nc1cc2c(nn1)CCN(C(=O)Cc1ccc3c(c1)CCO3)C2 | 9.71 |
| Nc1cc2c(nn1)CCN(C(=O)CCc1ccc3c(c1)OCO3)C2 | -6.15 |
| O=C(CCc1ccsc1)NCc1ccnc(OC2CCOCC2)c1 | -5.9 |
| Cc1c(NC(C)C(C)C)cccc1C(=O)NCc1nnc(C)n1C (stereo not drawn) | 8.29 |
| Cc1ccc(F)cc1C(=O)OCC1CCCN1C(N)=O (stereo not drawn) | -1.91 |
| Cc1c(F)cccc1NC(=O)N(C(C)CS(C)(=O)=O)C1CC1 (stereo not drawn) | -4.32 |
| CC(C)Cc1cc(NC(=O)N2CCC(Oc3cccnc3)C2)n(C)n1 (stereo not drawn) | 5.38 |

| Structure (SMILES) | cytotoxicity at 70.5 h [%] |
| --- | --- |
| Cc1noc(-c2cccnc2N2CCN(c3cnn(C)c3)CC2)n1 | -12 |
| Cn1cc(CCC(=O)NS(=O)(=O)N2CCCc3ccccc32)cn1 | -8.12 |
| O=C(NCCc1ccsc1)c1ccoc1 | 5.67 |
| CN(CCn1nc2ccccn2c1=O)CC(=O)N(C)C1CCCCC1 | 2.32 |
| Cc1nc(CNC(=O)NC2CCCN(c3ncccn3)C2)cs1 (stereo not drawn) | -14.1 |
| COC(=O)C(C)(C)NC(=O)C1CC(=O)N(CC2CC2)C1 (stereo not drawn) | -6.45 |
| Cc1nc2cc(O)nn2c(C)c1CCC(=O)N(C)Cc1ccccc1 | 2.7 |
| Cc1ccc(C(=O)N(C)CCOc2ccccc2F)c(=O)[nH]1 | -5.2 |
| COc1c(CNCc2cccnc2N2CCCCC2)c(C)nn1C | 2.37 |
| Cc1nn(C)c(N(C)C)c1CNCc1cccnc1N1CCOCC1 | -8.33 |
| Cc1nnc2n1CCN(C(=O)c1cn(-c3ccccc3)nn1)C2 | -1.52 |
| Cc1nc2cc(O)nn2c(C)c1CCC(=O)N(C)CCC(C)C | -7.92 |
| CCOc1ccc(NC(=O)N2CCOC(C(N)=O)C2)cc1Cl (stereo not drawn) | 2.49 |
| Cc1ccc(NC(=O)N2CCOC(C(N)=O)C2)cc1C(F)(F)F (stereo not drawn) | -4.03 |
| COc1ccc(OC)c(C(=O)N2CCC(Nc3cccnc3)CC2)c1 | -0.864 |
| CCOc1ccc(NC(=O)N2CCOC(C(N)=O)C2)cc1C (stereo not drawn) | 1.77 |
| CN1N=C(C(=O)N(Cc2ccco2)C2CCCC2)CCC1=O | -9.57 |
| O=C(Cc1ccc2c(c1)CCC2)N1CCCC1Cn1cccn1 (stereo not drawn) | 26.4 |
| CN(CCN1CCOCC1)C(=O)CCCOCCc1ccccc1 | 13.1 |
| CN(Cc1ccc(F)cc1)S(=O)(=O)N1CCOCC1 | 6.44 |
| O=C(NCc1ccccn1)NC1CCCN(c2ncccn2)C1 (stereo not drawn) | -9.45 |
| O=C(NCc1ccoc1)NC1CCN(c2ncccn2)CC1 | 16.1 |
| CNC(=O)c1ccc(CNC(=O)c2ccc(Cl)cc2F)cc1 | -11.8 |
| CCC(=O)Nc1ccc2c(ccn2CCOC)c1 | -8.06 |

| Structure (SMILES) | cytotoxicity at 70.5 h [%] |
| --- | --- |
| COC1CCN(C(=O)c2cc(-c3ccc(Cl)cc3)on2)CC1 | -8.24 |
| CCOC1CCN(C(=O)c2cc(-c3ccc(Cl)cc3)on2)CC1 | -5.56 |
| COCCn1ccc(NC(=O)Nc2ccccn2)n1 | -10 |
| CC1CCC(NC(=O)Nc2ccc(CC(=O)N(C)C)cc2)CC1 (stereo not drawn) | -5.4 |
| CN(C(=O)Cc1ccc(NC(=O)NC2CC2)cc1)c1ccccc1 | 19.9 |
| COCCn1ccc(NC(=O)Nc2ccccc2)n1 | -2.83 |
| COCCn1ccc2cc(NC(=O)N(C)C(C)CSC)ccc21 (stereo not drawn) | 1.74 |
| O=C(c1cc2ccccc2c(=O)[nH]1)N1CCN(CCO)CC1 | -4.06 |
| O=C(Nc1ccc2ncccc2c1)C1CC(=O)N(Cc2ccccn2)C1 (stereo not drawn) | -4.54 |
| CC(NC(=O)c1ccnn1C)c1ccc(OCC2CC2)c(F)c1 (stereo not drawn) | 10.9 |
| COc1ccc(S(=O)(=O)NC(=O)c2c(C)noc2C(C)C)cc1C | -5.8 |
| CCN(Cc1cccc(F)c1)S(=O)(=O)N1CCOCC1 | 0.239 |
| CN(C(=O)Cc1ccc2c(c1)OCCO2)C1CCCCC1 | -1.71 |
| Cc1ccccc1OCCCC(=O)N(C)CCC#N | -5.57 |
| CCc1nccn1C1CCCN(C(=O)c2ccc(N(C)C)nn2)C1 (stereo not drawn) | -7.7 |
| CCc1nccn1C1CCCN(C(=O)c2ccn(-c3ccccc3)n2)C1 (stereo not drawn) | -1.19 |
| COc1ccc(N2CCCN(C(=O)Cc3csc(C)n3)CC2)cc1 | 0.0529 |
| CC(C(=O)N1CCCC1)N1CCCN(C(=O)Oc2ccccc2)CC1 (stereo not drawn) | -10.6 |
| CCn1c(C)cc(C(=O)N2CCCC(n3ccnc3C)C2)c1C (stereo not drawn) | -6.2 |
| NCC(c1ccc(Cl)cc1)N1CCc2sccc2C1 (stereo not drawn) | 7.32 |
| Cc1ccc(C(=O)NCCCNS(C)(=O)=O)cc1C | -9.61 |
| CCOC(=O)c1c(NC(=O)CN2CCN(C(C)=O)CC2)sc(C)c1C | -13.3 |
| Cc1ccc(C(=O)NCCCN(C)S(C)(=O)=O)cc1-n1cccc1 | -8.22 |
| CC(C)C(C)NC(=O)Nc1ccc(CC(N)=O)cc1 (stereo not drawn) | -3.59 |

| Structure (SMILES) | cytotoxicity at 70.5 h [%] |
| --- | --- |
| Cc1ccc(C(=O)NS(C)(=O)=O)cc1-n1cccc1 | -6.32 |
| Cc1ccc(C(=O)N(C)Cc2nccn2CC(F)(F)F)cn1 | -13.5 |
| COCCNC(=O)NC(C)COc1ccc(F)cc1F (stereo not drawn) | -0.107 |
| Cc1cnn(CC2CCCCN2C(=O)Cc2c(C)noc2Cl)c1 (stereo not drawn) | 24.1 |
| Cc1cnn(CC2CCCCN2C(=O)Cc2c(C)noc2C)c1 (stereo not drawn) | -9.25 |
| O=C(CN1CCCC1CCCO)NCc1ccccn1 (stereo not drawn) | 1.57 |
| COc1cccc2c1OCC(NC(=O)NCCC(N)=O)C2 (stereo not drawn) | -7.75 |
| Cc1cc(C)n(CCCNC(=O)C(C)NC(=O)CC2CCCCC2)n1 (stereo not drawn) | -5.96 |
| CCCc1n[nH]c(C2CN(C(=O)c3cc(C4CC4)on3)CCO2)n1 (stereo not drawn) | -10.9 |
| CNS(=O)(=O)c1cc(C(=O)NC2COc3ccccc32)cc(C)c1C (stereo not drawn) | -13.5 |
| O=C(NCCc1nnc2n1CCC2)NCC1(c2ccc(F)cc2)CC1 | -7.03 |
| Cn1cc(CC2CCN(C(=O)NCCCc3ccc(O)cc3)C2)cn1 (stereo not drawn) | -9.85 |
| CCCc1noc(CCC(=O)N2CCCC2Cn2cc(C)cn2)n1 (stereo not drawn) | -10.8 |
| CCC(=O)NCC(c1ccc(SC)cc1)N1CCc2sccc2C1 (stereo not drawn) | -8.32 |
| COC(=O)c1ccoc1CN(C)Cc1ccccc1 | -0.994 |
| COCCOCC(=O)Nc1ccc(C)cc1Br | -3.99 |
| COc1ccccc1CC(C)(C)NC(=O)CNS(C)(=O)=O | -2.04 |
| O=C(CN1CCCS(=O)(=O)CC1)NCc1ccccc1F | -8.4 |
| O=C(CC1CCCO1)NCc1ccc(Br)cc1F (stereo not drawn) | -5.9 |
| CCOCCCC(=O)NC1CCN(C(C)c2ccccc2)CC1 (stereo not drawn) | -5.8 |
| N#CCCN(Cc1cccnc1)C(=O)Cc1ccc(-n2cnnn2)cc1 | -10.6 |
| COc1ccc(-n2ccc(CNCc3cccc(OC)c3)n2)cc1 | 23.7 |
| Cc1cccc(OCCNC(=O)C(C)S(=O)(=O)C2CCCC2)c1 (stereo not drawn) | -9.37 |
| CCC(NC(=O)NCc1ccoc1C)c1c(C)nn(C)c1C (stereo not drawn) | -5.65 |

| Structure (SMILES) | cytotoxicity at 70.5 h [%] |
| --- | --- |
| Cc1nn(C)c(C)c1CC(C)NC(=O)NCc1ccn(C(C)C)n1 (stereo not drawn) | -5.76 |
| CC(C)CNC(=O)c1ccc(NC(=O)NC(C)(C)CO)cc1Cl | -2.58 |
| CCC1(c2ccc(NS(=O)(=O)c3cccs3)cc2)CCC(=O)NC1=O (stereo not drawn) | -1.8 |
| CC(C)CN1C(=O)C2(CCCC2)NC1c1cccnc1 (stereo not drawn) | 17.9 |
| CC(CO)CNC(=O)c1cc2cccc(F)c2o1 (stereo not drawn) | -9.63 |
| CCN(CC)S(=O)(=O)CCNC(=O)c1cc2cccc(F)c2o1 | -1.2 |
| CCc1nsc(N2CCCN(C(=O)c3ccsc3)CC2)n1 | 14 |
| CCc1nsc(N2CCCN(C(=O)c3ccc(CC)o3)CC2)n1 | -11 |
| CCc1nsc(N2CCCN(C(=O)c3ccc(OC)cc3)CC2)n1 | -10.9 |
| CCOC(=O)C(CO)NC(=O)CCc1cccc(OC2CCCC2)c1 (stereo not drawn) | -3.2 |
| Cc1nc(NC(=O)CCOCC(F)(F)F)ccc1Br | 2.27 |
| CC(NC(=O)c1cccnc1N(C)C)c1ccccc1Cl (stereo not drawn) | -9.9 |
| CCC(NCc1ccccc1C)c1ccccc1OCC(=O)NC (stereo not drawn) | 25.2 |
| O=C1OCCN1c1cccc(CNS(=O)(=O)Cc2ccc(F)cc2)c1 | -6.39 |
| CC(C)N(C)C(=O)c1ccc(CNc2ncc(C#N)cc2Cl)cc1 | 18.7 |
| Cc1cc(C)c(CCNC(=O)NCCCC(N)=O)c(C)c1 | -1.98 |
| CC(NC(=O)CCc1cccc(OC2CCCC2)c1)c1nncn1C (stereo not drawn) | 2.36 |
| COCC1CCN(CCCc2cn[nH]c2)CC1 | 19.8 |
| CC1CCN(S(=O)(=O)c2cccnc2)c2ccccc2S1 (stereo not drawn) | -3.73 |
| CCNC(=O)C1CCCN(Cn2nc(C(C)(C)C)ccc2=O)C1 (stereo not drawn) | 21.4 |
| CC(C)(C)c1ccc(=O)n(CN2CCCC(C(F)(F)F)C2)n1 (stereo not drawn) | -7.29 |
| O=C(c1ccoc1)N1CCC(NCc2ccccc2Cl)CC1 | -8.33 |
